The values that follow come from ChEMBL document CHEMBL5291721, “A preclinical secondary pharmacology resource illuminates target-adverse drug reaction associations of marketed drugs” (Nat Commun, 2023).

Where only a bound is given, the exact number is not on record here.

The target in one assay is T1, Adenosine receptor A1 (Homo sapiens, UniProt P30542).
T1 sequence (P30542 whole entry): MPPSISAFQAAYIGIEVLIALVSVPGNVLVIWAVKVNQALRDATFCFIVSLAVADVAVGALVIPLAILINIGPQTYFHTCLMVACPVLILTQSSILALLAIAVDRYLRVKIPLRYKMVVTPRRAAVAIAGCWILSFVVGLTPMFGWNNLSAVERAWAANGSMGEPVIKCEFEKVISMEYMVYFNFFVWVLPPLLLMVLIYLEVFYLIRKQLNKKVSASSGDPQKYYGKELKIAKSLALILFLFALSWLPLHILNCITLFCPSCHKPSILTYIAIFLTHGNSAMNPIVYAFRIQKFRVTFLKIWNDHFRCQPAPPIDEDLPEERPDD

In assay [1] the target is T2, Prostaglandin G/H synthase 1 (Rattus norvegicus, UniProt Q63921).
T2 sequence (Q63921 whole entry): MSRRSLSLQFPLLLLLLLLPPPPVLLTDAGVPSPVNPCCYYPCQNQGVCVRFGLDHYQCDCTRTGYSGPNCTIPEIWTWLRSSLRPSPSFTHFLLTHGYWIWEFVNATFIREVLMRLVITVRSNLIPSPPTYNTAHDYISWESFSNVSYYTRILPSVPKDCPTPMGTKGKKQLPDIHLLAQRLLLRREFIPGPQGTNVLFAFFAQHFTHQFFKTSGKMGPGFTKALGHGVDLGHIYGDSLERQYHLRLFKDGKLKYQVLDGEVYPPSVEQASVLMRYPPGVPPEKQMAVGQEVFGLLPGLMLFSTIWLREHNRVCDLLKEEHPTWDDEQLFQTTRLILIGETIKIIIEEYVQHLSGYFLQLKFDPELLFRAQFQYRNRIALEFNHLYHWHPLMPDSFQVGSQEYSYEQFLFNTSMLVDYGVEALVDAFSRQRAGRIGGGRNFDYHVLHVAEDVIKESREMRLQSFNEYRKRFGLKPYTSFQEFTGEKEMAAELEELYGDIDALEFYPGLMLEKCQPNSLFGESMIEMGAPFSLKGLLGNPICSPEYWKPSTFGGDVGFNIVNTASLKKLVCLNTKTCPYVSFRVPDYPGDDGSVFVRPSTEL
Format: functional.

Assay [2] addresses T3, Muscarinic acetylcholine receptor M2 (Homo sapiens, UniProt P08172).
T3 sequence (P08172 whole entry): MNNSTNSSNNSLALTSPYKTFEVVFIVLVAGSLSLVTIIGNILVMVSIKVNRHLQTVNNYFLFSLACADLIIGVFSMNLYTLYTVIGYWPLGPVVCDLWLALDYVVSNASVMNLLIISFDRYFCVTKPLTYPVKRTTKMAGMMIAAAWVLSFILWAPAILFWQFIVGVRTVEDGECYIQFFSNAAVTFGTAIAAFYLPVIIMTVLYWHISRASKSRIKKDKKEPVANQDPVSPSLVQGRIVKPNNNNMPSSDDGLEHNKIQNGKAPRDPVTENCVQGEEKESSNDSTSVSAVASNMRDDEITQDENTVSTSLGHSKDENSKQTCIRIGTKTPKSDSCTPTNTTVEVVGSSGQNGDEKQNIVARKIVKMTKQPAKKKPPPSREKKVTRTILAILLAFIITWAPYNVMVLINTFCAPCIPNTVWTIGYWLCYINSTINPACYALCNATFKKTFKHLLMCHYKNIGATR
Format: functional, cell-based.

Assay [3] addresses 3',5'-cyclic-AMP phosphodiesterase 4D (Homo sapiens, UniProt Q08499). Format: functional.
In the next assay the target is T4, Progesterone receptor (Homo sapiens, UniProt P06401).
T4 sequence (P06401 whole entry): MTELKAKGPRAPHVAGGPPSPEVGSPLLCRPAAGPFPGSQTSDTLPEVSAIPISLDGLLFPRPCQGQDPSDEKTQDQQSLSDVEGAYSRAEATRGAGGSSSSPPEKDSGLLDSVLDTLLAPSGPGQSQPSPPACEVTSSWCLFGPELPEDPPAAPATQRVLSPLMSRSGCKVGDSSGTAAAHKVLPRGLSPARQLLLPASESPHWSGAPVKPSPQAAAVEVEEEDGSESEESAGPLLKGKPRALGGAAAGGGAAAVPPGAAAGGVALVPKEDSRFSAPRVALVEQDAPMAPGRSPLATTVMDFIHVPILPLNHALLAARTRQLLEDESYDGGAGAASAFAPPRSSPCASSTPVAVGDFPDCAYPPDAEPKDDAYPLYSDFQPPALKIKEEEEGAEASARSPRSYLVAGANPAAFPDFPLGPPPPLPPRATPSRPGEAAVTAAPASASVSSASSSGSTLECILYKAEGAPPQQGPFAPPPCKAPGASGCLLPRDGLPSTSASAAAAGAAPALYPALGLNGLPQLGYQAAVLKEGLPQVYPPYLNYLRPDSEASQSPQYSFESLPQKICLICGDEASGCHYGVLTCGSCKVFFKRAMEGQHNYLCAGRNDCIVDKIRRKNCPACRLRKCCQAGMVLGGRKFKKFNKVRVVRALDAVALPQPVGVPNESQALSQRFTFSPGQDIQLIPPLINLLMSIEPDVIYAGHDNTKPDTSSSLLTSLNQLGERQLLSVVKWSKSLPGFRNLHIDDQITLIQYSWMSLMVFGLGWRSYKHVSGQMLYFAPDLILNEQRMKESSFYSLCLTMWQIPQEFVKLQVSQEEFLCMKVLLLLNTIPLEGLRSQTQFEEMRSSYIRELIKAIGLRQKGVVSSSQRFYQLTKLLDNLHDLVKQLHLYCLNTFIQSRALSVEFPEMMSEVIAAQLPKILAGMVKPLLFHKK
Format: functional.

Another assay has as its target Vasopressin V1a receptor (Homo sapiens, UniProt P37288).
A further assay concerns the target Melanocortin receptor 3 (Homo sapiens, UniProt P41968).
Assay [4] addresses T5, Gastrin/cholecystokinin type B receptor (Homo sapiens, UniProt P32239).
T5 sequence (P32239 whole entry): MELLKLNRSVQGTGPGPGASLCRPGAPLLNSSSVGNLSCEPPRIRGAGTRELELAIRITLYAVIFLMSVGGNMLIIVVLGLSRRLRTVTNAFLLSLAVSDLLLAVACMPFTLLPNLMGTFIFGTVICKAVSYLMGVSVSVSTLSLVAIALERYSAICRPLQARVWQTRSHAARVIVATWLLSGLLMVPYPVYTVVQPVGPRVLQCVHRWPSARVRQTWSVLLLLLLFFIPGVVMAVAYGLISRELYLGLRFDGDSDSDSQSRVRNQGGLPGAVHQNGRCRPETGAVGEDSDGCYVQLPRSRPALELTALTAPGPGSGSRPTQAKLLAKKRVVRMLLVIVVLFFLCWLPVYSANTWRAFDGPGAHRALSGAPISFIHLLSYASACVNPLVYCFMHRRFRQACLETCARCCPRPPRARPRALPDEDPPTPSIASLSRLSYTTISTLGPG
Note: assay procedure not described here.

Vasopressin V1a receptor, sequence (P37288 whole entry): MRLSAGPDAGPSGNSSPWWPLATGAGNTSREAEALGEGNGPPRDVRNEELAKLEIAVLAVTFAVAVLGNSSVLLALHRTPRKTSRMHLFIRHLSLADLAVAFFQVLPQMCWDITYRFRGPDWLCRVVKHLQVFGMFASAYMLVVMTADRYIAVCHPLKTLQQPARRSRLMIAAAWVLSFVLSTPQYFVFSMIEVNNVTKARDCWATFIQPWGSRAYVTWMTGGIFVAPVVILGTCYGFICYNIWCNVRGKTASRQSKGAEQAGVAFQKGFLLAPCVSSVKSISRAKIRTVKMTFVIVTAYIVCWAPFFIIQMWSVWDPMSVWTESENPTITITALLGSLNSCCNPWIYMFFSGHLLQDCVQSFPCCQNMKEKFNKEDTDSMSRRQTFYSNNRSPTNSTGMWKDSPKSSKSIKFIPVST
3',5'-cyclic-AMP phosphodiesterase 4D, sequence (Q08499 whole entry): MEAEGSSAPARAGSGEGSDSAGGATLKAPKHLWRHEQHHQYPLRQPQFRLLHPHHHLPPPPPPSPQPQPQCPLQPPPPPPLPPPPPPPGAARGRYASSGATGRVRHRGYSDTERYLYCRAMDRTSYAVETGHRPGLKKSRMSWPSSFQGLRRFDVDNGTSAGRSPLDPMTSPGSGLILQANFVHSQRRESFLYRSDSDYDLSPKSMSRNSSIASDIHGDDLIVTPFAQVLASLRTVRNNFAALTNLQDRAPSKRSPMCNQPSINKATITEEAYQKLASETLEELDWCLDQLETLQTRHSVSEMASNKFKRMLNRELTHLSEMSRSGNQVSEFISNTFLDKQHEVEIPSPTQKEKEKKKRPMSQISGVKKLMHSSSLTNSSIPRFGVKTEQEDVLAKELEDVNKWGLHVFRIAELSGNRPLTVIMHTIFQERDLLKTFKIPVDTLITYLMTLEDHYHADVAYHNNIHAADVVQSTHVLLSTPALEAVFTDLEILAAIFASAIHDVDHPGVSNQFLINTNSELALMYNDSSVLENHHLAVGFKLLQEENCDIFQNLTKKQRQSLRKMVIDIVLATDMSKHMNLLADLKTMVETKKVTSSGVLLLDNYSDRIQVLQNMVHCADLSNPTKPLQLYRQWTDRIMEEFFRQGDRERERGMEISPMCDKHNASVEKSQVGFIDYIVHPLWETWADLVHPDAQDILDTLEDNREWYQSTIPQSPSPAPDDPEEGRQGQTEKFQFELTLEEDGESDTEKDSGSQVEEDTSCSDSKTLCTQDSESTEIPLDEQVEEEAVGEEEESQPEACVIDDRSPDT
Melanocortin receptor 3, sequence (P41968 whole entry): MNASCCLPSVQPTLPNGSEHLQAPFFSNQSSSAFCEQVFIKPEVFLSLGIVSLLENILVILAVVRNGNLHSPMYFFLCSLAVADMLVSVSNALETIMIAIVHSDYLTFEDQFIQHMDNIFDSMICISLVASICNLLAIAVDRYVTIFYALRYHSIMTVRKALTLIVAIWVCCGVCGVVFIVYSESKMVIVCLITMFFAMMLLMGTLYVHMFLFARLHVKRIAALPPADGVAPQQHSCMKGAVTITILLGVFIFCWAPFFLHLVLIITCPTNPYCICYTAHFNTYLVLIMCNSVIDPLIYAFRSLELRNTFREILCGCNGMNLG

Consider `COC(=O)[C@H]1[C@H]2C[C@@H]3c4[nH]c5ccccc5c4CCN3C[C@H]2C[C@@H](OC(=O)c2cc(OC)c(OC)c(OC)c2)[C@@H]1OC` [DESERPIDINE], for which the AC50 (in general, the midpoint of the concentration-response curve, whichever way the signal moves) on Adenosine receptor A1 was over 30 µM; in assay [1], 34.3 µM; in assay [2] it was over 10 µM; in assay [3] it was over 30 µM; at Progesterone receptor, over 30 µM; on Vasopressin V1a receptor, over 30 µM. The AC50 (on Melanocortin receptor 3; in assay [4]) was over 30 µM in each case.

Turning to `CCN1C(=O)NC(c2ccccc2)C1=O` (centres undefined) [ETHOTOIN], the AC50 on Adenosine receptor A1 was over 30 µM; in assay [1], 22 µM; in assay [2], over 30 µM; in assay [3], over 30 µM; on Progesterone receptor, over 30 µM; at Vasopressin V1a receptor, over 30 µM. Moreover, the AC50 (at Melanocortin receptor 3; in assay [4]) was over 30 µM each time.

In the case of `Cc1ccc(S(=O)(=O)NC(=O)N[C@H]2[C@H]3CC[C@@](C)([C@H]2O)C3(C)C)cc1` [GLIBORNURIDE], the AC50 (at Adenosine receptor A1; in assay [1]; in assay [2]; in assay [3]; on Progesterone receptor; on Vasopressin V1a receptor) was over 30 µM throughout. Further, the AC50 (at Melanocortin receptor 3; in assay [4]) was over 30 µM each time.

As to `CCC(NC(C)C)C(O)c1ccc(O)c(O)c1` (centres undefined) [ISOETHARINE], the AC50 is over 30 µM at Adenosine receptor A1; 0.66 µM in assay [1]; over 30 µM in assay [2]; over 30 µM in assay [3]; over 30 µM at Progesterone receptor; over 30 µM on Vasopressin V1a receptor. Further, the AC50 (at Melanocortin receptor 3; in assay [4]) was over 30 µM each time.

Consider `CCC(=O)O[C@H](CC(=O)O)C[N+](C)(C)C` [LEVOCARNITINE PROPIONATE], for which the half-maximal activity concentration (AC50) (at Adenosine receptor A1; in assay [1]; in assay [2]; in assay [3]; at Progesterone receptor; at Vasopressin V1a receptor) was over 30 µM in each case. Besides, the AC50 (at Melanocortin receptor 3; in assay [4]) was over 30 µM each time.

Regarding `O=C(O)c1nn(Cc2ccc(Cl)cc2Cl)c2ccccc12` [LONIDAMINE], the AC50 (at Adenosine receptor A1; in assay [1]; in assay [2]; in assay [3]; at Progesterone receptor; at Vasopressin V1a receptor) was over 30 µM each time. Also, the AC50 (at Melanocortin receptor 3; in assay [4]) was over 30 µM each time.

Turning to `COC(=O)c1ccc2c(c1)NC(=O)/C2=C(\Nc1ccc(N(C)C(=O)CN2CCN(C)CC2)cc1)c1ccccc1` [NINTEDANIB], the AC50 (on Adenosine receptor A1; in assay [1]; in assay [2]; in assay [3]; on Progesterone receptor; at Vasopressin V1a receptor) was over 30 µM throughout. Moreover, the AC50 (on Melanocortin receptor 3; in assay [4]) was over 30 µM throughout.

On to `CCN(CC)Cc1nccn1-c1ccc([N+](=O)[O-])cc1C(=O)c1ccccc1Cl` [NIZOFENONE], for which the AC50 (at Adenosine receptor A1; in assay [1]; in assay [2]; in assay [3]; on Progesterone receptor; on Vasopressin V1a receptor) was over 30 µM in each case. The AC50 (on Melanocortin receptor 3; in assay [4]) was over 30 µM each time.

With `CN1CCCN=C1/C=C/c1cccc(O)c1` [OXANTEL], the AC50 at Adenosine receptor A1 was over 30 µM; in assay [1], over 30 µM; in assay [2], over 30 µM; in assay [3] it was 17 µM; on Progesterone receptor, 10 µM; on Vasopressin V1a receptor, over 30 µM. Besides, the AC50 was over 30 µM at Melanocortin receptor 3 and over 10 µM in assay [4].

Consider `CS(=O)(=O)NC(=O)CCC/C=C\C[C@H]1C(=O)C[C@@H](O)[C@@H]1/C=C/[C@@H](O)COc1ccccc1` [SULPROSTONE], for which the AC50 (on Adenosine receptor A1; in assay [1]; in assay [2]; in assay [3]; at Progesterone receptor; at Vasopressin V1a receptor) was over 30 µM in each case. Moreover, the AC50 (on Melanocortin receptor 3; in assay [4]) was over 30 µM in each case.

Regarding `CCCCOC(=O)C(=O)Nc1cccc(-c2nnn[nH]2)c1` [TAZANOLAST], the AC50 (at Adenosine receptor A1; in assay [1]; in assay [2]; in assay [3]; at Progesterone receptor; at Vasopressin V1a receptor) was over 30 µM in each case. The AC50 (at Melanocortin receptor 3; in assay [4]) was over 30 µM throughout.

On to `Cc1cccc(Nc2ccncc2S(=O)(=O)NC(=O)NC(C)C)c1` [TORSEMIDE], for which the AC50 at Adenosine receptor A1 was over 30 µM; in assay [1], over 10 µM; in assay [2] it was over 10 µM; in assay [3] it was over 30 µM; at Progesterone receptor, over 10 µM; at Vasopressin V1a receptor it was over 30 µM. The AC50 (on Melanocortin receptor 3; in assay [4]) was over 30 µM in each case.

On to `CCCCC[C@H](O)CC[C@@H]1[C@H]2Cc3cccc(OCC(=O)O)c3C[C@H]2C[C@H]1O` [TREPROSTINIL], for which the AC50 (at Adenosine receptor A1; in assay [1]; in assay [2]; in assay [3]; at Progesterone receptor; on Vasopressin V1a receptor) was over 30 µM in each case. Further, the AC50 (at Melanocortin receptor 3; in assay [4]) was over 30 µM in each case.
